# Experimental data from patent US7138361B2, “Herbicidal heterocycles” (E. I. du Pont de Nemours and Company, priority 2000, dated 2006).
# Key:
# Assay type in all cases: in vivo
# [1] = tested on: goosegrass (Eleusine indica); experiment: Test C preemergence; details: for Plant response rating, Goosegrass: scale 0 to 100, 0 no effect, 100 complete control; for Plant response rating (0 to 100), Goosegrass: preemergence, visual evaluation after 12 to 14 days
# From the text: (§1) Seeds of plant species selected from bermudagrass (Cynodon dactylon), Surinam grass (Brachiaria decumbens), cocklebur (Xanthium strumarium), corn (Zea mays), crabgrass (Digitaria sanguinalis), woolly cupgrass (Eriochloa villosa), giant foxtail (Setaria faberii), goosegrass (Eleusine indica), johnsongrass (Sorghum halepense), kochia (Kochia scoparia), lambsquarters (Chenopodium album), morningglory (Ipomoea hederacea), yellow nutsedge (Cyperus esculentus), pigweed (Amaranthus retroflexus), common ragweed (Ambrosia elatior), soybean (Glycine max) and velvetleaf (Abutilon theophrasti) were planted and treated preemergence with test chemicals formulated in a non-phytotoxic solvent mixture which included a surfactant.
# (§2) At the same time, plants selected from these crop and weed species and also winter barley (Hordeum vulgare), blackgrass (Alopecurus myosuroides), canary grass (Phalaris minor), chickweed (Stellaria media), downy brome (Bromus tectorum), green foxtail (Setaria viridis), Italian ryegrass (Lolium multiflorum), wheat (Triticum aestivum), wild oat (Avena fatua) and windgrass (Apera spica-venti) were treated with postemergence applications of some of the test chemicals formulated in the same manner. Plants ranged in height from 2 to 18 cm (1- to 4-leaf stage) for postemergence treatments. Plant species in the flooded paddy test consisted of rice (Oryza saliva), smallflower flatsedge (Cyperus difformis), duck salad (Heteranthera limosa) and barnyardgrass (Echinochloa crus-galli) grown to the 2-leaf stage for testing. Treated plants and controls were maintained in a greenhouse for 12 to 14 days, after which time all species were compared to controls and visually evaluated. Plant response ratings, summarized in Table C, are based on a scale of 0 to 100 where 0 is no effect and 100 is complete control. A dash (-) response means no test result.
# [2] = tested on: bermudagrass (Cynodon dactylon); experiment: Test C preemergence; details: for Plant response rating, Bermudagrass: scale 0 to 100, 0 no effect, 100 complete control; for Plant response rating (0 to 100 where 0 is no effect and 100 is complete control), Bermudagrass: preemergence, visual evaluation after 12 to 14 days
# From the text: as §1, §2
# Nightshade = experiment: Test C preemergence; details: scale 0 to 100, 0 no effect, 100 complete control
# From the text: as §1, §2
# kochia (Kochia scoparia) = experiment: Test C preemergence; details: for Plant response rating, Kochia: scale 0 to 100, 0 no effect, 100 complete control
# From the text: as §1, §2
# [3] = tested on: Surinam grass (Brachiaria decumbens); experiment: Test C preemergence; details: for Plant response rating, Surinam grass: scale 0 to 100, 0 no effect, 100 complete control; for Plant response rating (0 to 100), Surinam grass: preemergence, visual evaluation after 12 to 14 days
# From the text: as §1, §2
# [4] = tested on: cocklebur (Xanthium strumarium); experiment: Test C preemergence; details: for Plant response rating, Cocklebur: scale 0 to 100, 0 no effect, 100 complete control; for Plant response rating (0 to 100), Cocklebur: preemergence, visual evaluation after 12 to 14 days
# From the text: as §1, §2
# [5] = tested on: velvetleaf (Abutilon theophrasti); experiment: Test C preemergence; details: for Plant response rating, Velvetleaf: scale 0 to 100, 0 no effect, 100 complete control
# From the text: as §1, §2
# [6] = tested on: morningglory (Ipomoea hederacea); experiment: Test C preemergence; details: for Plant response rating, Morningglory: scale 0 to 100, 0 no effect, 100 complete control
# From the text: as §1, §2
# Sunflower = experiment: Test C preemergence; details: Rate 125 g/ha; scale 0 to 100, 0 no effect, 100 complete control
# From the text: as §1, §2
# [7] = tested on: lambsquarters (Chenopodium album); experiment: Test C preemergence; details: for Plant response rating, Lambsquarters: scale 0 to 100, 0 no effect, 100 complete control
# From the text: as §1, §2
# [8] = tested on: woolly cupgrass (Eriochloa villosa); experiment: Test C preemergence; details: for Plant response rating, Cupgrass, Woolly: scale 0 to 100, 0 no effect, 100 complete control; for Plant response rating (0 to 100), Cupgrass, Woolly: preemergence, visual evaluation after 12 to 14 days
# From the text: as §1, §2
# [9] = tested on: common ragweed (Ambrosia elatior); experiment: Test C preemergence; details: for Plant response rating, Ragweed, Common: scale 0 to 100, 0 no effect, 100 complete control
# From the text: as §1, §2
# [10] = tested on: johnsongrass (Sorghum halepense); experiment: Test C preemergence; details: for Plant response rating, Johnsongrass: scale 0 to 100, 0 no effect, 100 complete control; for Plant response rating (0 to 100), Johnsongrass: preemergence, visual evaluation after 12 to 14 days
# From the text: as §1, §2
# [11] = tested on: crabgrass (Digitaria sanguinalis); experiment: Test C preemergence; details: for Plant response rating, Crabgrass: scale 0 to 100, 0 no effect, 100 complete control; for Plant response rating (0 to 100), Crabgrass: preemergence, visual evaluation after 12 to 14 days
# From the text: as §1, §2
# corn (Zea mays) = experiment: Test C preemergence; details: for Plant response rating, Corn: scale 0 to 100, 0 no effect, 100 complete control; for Plant response rating (0 to 100), Corn: preemergence, visual evaluation after 12 to 14 days
# From the text: as §1, §2
# soybean (Glycine max) = experiment: Test C preemergence; details: for Plant response rating, Soybean: scale 0 to 100, 0 no effect, 100 complete control
# From the text: as §1, §2
# [12] = tested on: yellow nutsedge (Cyperus esculentus); experiment: Test C preemergence; details: for Plant response rating, Nutsedge: scale 0 to 100, 0 no effect, 100 complete control
# From the text: as §1, §2
# [13] = tested on: giant foxtail (Setaria faberii); experiment: Test C preemergence; details: for Plant response rating, Foxtail, Giant: scale 0 to 100, 0 no effect, 100 complete control; for Plant response rating (0 to 100), Foxtail, Giant: preemergence, visual evaluation after 12 to 14 days
# From the text: as §1, §2
# [14] = tested on: pigweed (Amaranthus retroflexus); experiment: Test C preemergence; details: for Plant response rating, Pigweed: scale 0 to 100, 0 no effect, 100 complete control
# From the text: as §1, §2
# [15] = tested on: smallflower flatsedge (Cyperus difformis); experiment: Test C flooded paddy test; details: for Flatsedge plant response rating: Flooded Paddy, scale 0 to 100, 0 no effect, 100 complete control; for Plant response rating, Flatsedge: flooded paddy test, scale 0 to 100 (0 no effect, 100 complete control)
# In short: (§3)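 Greenhouse-maintained for 12 to 14 days after treatment, the paddy plants (2-leaf stage at application) were scored visually against controls. A score of 0 denotes no effect and a score of 100 denotes complete control.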
# [16] = tested on: barnyardgrass (Echinochloa crus-galli); experiment: Test C flooded paddy test; details: for Barnyardgrass plant response rating: Flooded Paddy, scale 0 to 100, 0 no effect, 100 complete control
# In short: as §3
# [17] = tested on: duck salad (Heteranthera limosa); experiment: Test C flooded paddy test; details: for Plant response rating, Ducksalad: flooded paddy test, scale 0 to 100 (0 no effect, 100 complete control)
# In short: as §3
# [18] = preemergence, Rate 500 g/ha, visual evaluation after 12 to 14 days
smiles,measurement,setting,value
CC(C)(C)c1ccn(C2CCN(c3ccc(F)c(Br)c3)C2=O)n1 (centres unmarked) [Compound 75],"Plant response rating, Goosegrass",[1]; Rate 62 g/ha,90
same,"Plant response rating, Goosegrass",[1]; Rate 125 g/ha,100
same,"Plant response rating (0 to 100), Goosegrass",[1]; Rate 250 g/ha,100
same,"Plant response rating (0 to 100), Goosegrass",[1]; Rate 500 g/ha,100
same,"Plant response rating, Bermudagrass",[2]; Rate 62 g/ha,100
same,"Plant response rating, Bermudagrass",[2]; Rate 125 g/ha,100
same,"Plant response rating (0 to 100 where 0 is no effect and 100 is complete control), Bermudagrass",[2]; Rate 250 g/ha,100
same,"Plant response rating (0 to 100 where 0 is no effect and 100 is complete control), Bermudagrass",[2]; Rate 500 g/ha,100
same,"Plant response rating, Nightshade",Nightshade; Rate 62 g/ha,0
same,"Plant response rating, Nightshade",Nightshade; Rate 125 g/ha,0
same,"Plant response rating, Nightshade",Nightshade; Rate 250 g/ha,0
same,"Plant response rating, Kochia",kochia (Kochia scoparia); Rate 62 g/ha,100
same,"Plant response rating, Kochia",kochia (Kochia scoparia); Rate 125 g/ha,100
same,"Plant response rating (0 to 100), Kochia","kochia (Kochia scoparia); preemergence, Rate 250 g/ha, visual evaluation after 12 to 14 days",100
same,"Plant response rating, Surinam grass",[3]; Rate 62 g/ha,10
same,"Plant response rating, Surinam grass",[3]; Rate 125 g/ha,40
same,"Plant response rating (0 to 100), Surinam grass",[3]; Rate 250 g/ha,60
same,"Plant response rating (0 to 100), Surinam grass",[3]; Rate 500 g/ha,60
same,"Plant response rating, Cocklebur",[4]; Rate 62 g/ha,0
same,"Plant response rating, Cocklebur",[4]; Rate 125 g/ha,0
same,"Plant response rating (0 to 100), Cocklebur",[4]; Rate 250 g/ha,0
same,"Plant response rating (0 to 100), Cocklebur",[4]; Rate 500 g/ha,0
same,"Plant response rating, Velvetleaf",[5]; Rate 125 g/ha,0
same,"Plant response rating (0 to 100), Velvetleaf",[5]; [18],0
same,"Plant response rating, Velvetleaf","[5]; preemergence, Rate 250 g/ha",0
same,"Plant response rating, Morningglory",[6]; Rate 62 g/ha,0
same,"Plant response rating, Morningglory",[6]; Rate 125 g/ha,0
same,"Plant response rating (0 to 100), Morningglory",[6]; [18],0
same,"Plant response rating, Morningglory","[6]; preemergence, Rate 250 g/ha",0
same,"Plant response rating, Sunflower",Sunflower,0
same,"Plant response rating, Lambsquarters",[7]; Rate 62 g/ha,100
same,"Plant response rating, Lambsquarters",[7]; Rate 125 g/ha,100
same,"Plant response rating (0 to 100), Lambsquarters",[7]; [18],100
same,"Plant response rating, Lambsquarters","[7]; preemergence, Rate 250 g/ha",100
same,"Plant response rating, Cupgrass, Woolly",[8]; Rate 62 g/ha,60
same,"Plant response rating, Cupgrass, Woolly",[8]; Rate 125 g/ha,80
same,"Plant response rating (0 to 100), Cupgrass, Woolly",[8]; Rate 250 g/ha,100
same,"Plant response rating (0 to 100), Cupgrass, Woolly",[8]; Rate 500 g/ha,100
same,"Plant response rating, Ragweed, Common",[9]; Rate 125 g/ha,0
same,"Plant response rating (0 to 100), Ragweed, Common",[9]; [18],60
same,"Plant response rating, Ragweed, Common","[9]; preemergence, Rate 250 g/ha",0
same,"Plant response rating, Johnsongrass",[10]; Rate 62 g/ha,0
same,"Plant response rating, Johnsongrass",[10]; Rate 125 g/ha,0
same,"Plant response rating (0 to 100), Johnsongrass",[10]; Rate 250 g/ha,30
same,"Plant response rating (0 to 100), Johnsongrass",[10]; Rate 500 g/ha,30
same,"Plant response rating, Crabgrass",[11]; Rate 62 g/ha,90
same,"Plant response rating, Crabgrass",[11]; Rate 125 g/ha,100
same,"Plant response rating (0 to 100), Crabgrass",[11]; Rate 250 g/ha,100
same,"Plant response rating (0 to 100), Crabgrass",[11]; Rate 500 g/ha,100
same,"Plant response rating, Corn",corn (Zea mays); Rate 62 g/ha,0
same,"Plant response rating, Corn",corn (Zea mays); Rate 125 g/ha,0
same,"Plant response rating (0 to 100), Corn",corn (Zea mays); Rate 250 g/ha,0
same,"Plant response rating (0 to 100), Corn",corn (Zea mays); Rate 500 g/ha,0
same,"Plant response rating, Soybean",soybean (Glycine max); Rate 125 g/ha,0
same,"Plant response rating (0 to 100), Soybean",soybean (Glycine max); [18],50
same,"Plant response rating, Soybean","soybean (Glycine max); preemergence, Rate 250 g/ha",0
same,"Plant response rating, Nutsedge",[12]; Rate 62 g/ha,0
same,"Plant response rating, Nutsedge",[12]; Rate 125 g/ha,0
same,"Plant response rating (0 to 100), Nutsedge",[12]; [18],50
same,"Plant response rating, Nutsedge","[12]; preemergence, Rate 250 g/ha",50
same,"Plant response rating, Foxtail, Giant",[13]; Rate 62 g/ha,90
same,"Plant response rating, Foxtail, Giant",[13]; Rate 125 g/ha,100
same,"Plant response rating (0 to 100), Foxtail, Giant",[13]; Rate 250 g/ha,70
same,"Plant response rating (0 to 100), Foxtail, Giant",[13]; Rate 500 g/ha,100
same,"Plant response rating, Pigweed",[14]; Rate 125 g/ha,100
same,"Plant response rating (0 to 100), Pigweed",[14]; [18],100
same,"Plant response rating, Pigweed","[14]; preemergence, Rate 250 g/ha",100
same,Flatsedge plant response rating,[15]; Rate 250 g/ha,100
same,Flatsedge plant response rating,[15]; Rate 500 g/ha,100
same,"Plant response rating, Flatsedge",[15]; Rate 62 g/ha,90
same,"Plant response rating, Flatsedge",[15]; Rate 125 g/ha,90
same,Barnyardgrass plant response rating,[16]; Rate 250 g/ha,80
same,Barnyardgrass plant response rating,[16]; Rate 500 g/ha,100
same,"Plant response rating, Barnyardgrass","[16]; flooded paddy test, Rate 62 g/ha, scale 0 to 100 (0 no effect, 100 complete control)",70
same,Ducksalad plant response rating,"[17]; Flooded Paddy, Rate 500 g/ha, scale 0 to 100, 0 no effect, 100 complete control",90
same,"Plant response rating, Ducksalad",[17]; Rate 62 g/ha,70
same,"Plant response rating, Ducksalad",[17]; Rate 125 g/ha,80
